Assay results as given in patent publication US6699854B2, “Anti-cancer compounds” (Cyclacel Limited, priority 2000, dated 2004).

Assays:
CDK2/cyclin E = target: T1, CDK2/cyclin E (Homo sapiens, UniProt P24941); experiment: CDK2/cyclin E kinase assay (GST-Rb phosphorylation); format: biochemical; conditions: Table 2, further results for CDK2/cyclin E inhibition; read-out: CDK2/cyclin E;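 further: enzyme source: His-tagged CDK2/cyclin E co-expressed in Sf9 insect cells via baculovirus, then purified by metal-chelate chromatography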
T1 construct: His; made in house; host or cells: Sf9 insect cells (baculovirus)

A549 = experiment: 72-h MTT cytotoxicity assay, A549; format: cell-based, human; conditions: Homo sapiens, Table 4, additional data for cytotoxicity assay using the A549 cell line; read-out: A549
Procedure: Selected compounds from the above examples were subjected to a standard cellular proliferation assay using a range of different human tumour cell lines. Standard 72-h MTT (thiazolyl blue; 3-{4,5-dimethylthiazol-2-yl}-2,5-diphenyltetrazolium bromide) assays were performed (Haselsberger, K.; Peterson, D. C.; Thomas, D. G.; Darling, J. L. Anti Cancer Drugs 1996, 7, 331-8; Loveland, B. E.; Johns, T. G.; Mackay, I. R.; Vaillant, F.; Wang, Z. X.; Hertzog, P. J. Biochemistry International 1992, 27, 501-10). Human tumour cell lines were obtained from the ATCC (American Type Culture Collection, 10801 University Boulevard, Manessas, Va. 20110-2209, USA).

| Compound | IC50 (CDK2/cyclin E) | IC50 (A549) |
| --- | --- | --- |
| COc1cccc(Nc2nccc(-c3sc(C)nc3C)n2)c1 [Compound 38, {4-(2,4-Dimethyl-thiazol-5-yl)-pyrimidin-2-yl}-(3-methoxy-phenyl)-amine] | 400 ± 300 nM | 4500 ± 1600 nM |
| COc1ccc(Nc2nccc(-c3sc(C)nc3C)n2)cc1 [Compound 39, {4-(2,4-Dimethyl-thiazol-5-yl)-pyrimidin-2-yl}-(4-methoxy-phenyl)-amine] | 220 ± 70 nM | 300 nM |
| Cc1nc(C)c(-c2ccnc(Nc3ccc(O)c([N+](=O)[O-])c3)n2)s1 [Compound 45, 4-{4-(2,4-Dimethyl-thiazol-5-yl)-pyrimidin-2-ylamino}-2-nitro-phenol] | 210 ± 160 nM | 3300 ± 500 nM |
| Cc1nc(C)c(-c2ccnc(Nc3ccc(C#N)cc3)n2)s1 [Compound 48, 4-{4-(2,4-Dimethyl-thiazol-5-yl)-pyrimidin-2-ylamino}-benzonitrile] | 30 nM | 6700 ± 1100 nM |
| Cc1nc(C)c(-c2ccnc(Nc3cccc(C#N)c3)n2)s1 [Compound 49, 3-{4-(2,4-Dimethyl-thiazol-5-yl)-pyrimidin-2-ylamino}-benzonitrile] | 20 nM | 2200 ± 20 nM |
| COC(=O)c1ccc(Nc2nccc(-c3sc(C)nc3C)n2)cc1 [Compound 50, 4-{4-(2,4-Dimethyl-thiazol-5-yl)-pyrimidin-2-ylamino}-benzoic acid methyl ester] | 300 nM | 8800 ± 10000 nM |
| Cc1nc(C)c(-c2ccnc(Nc3ccc(C)c(Cl)c3)n2)s1 [Compound 51, (3-Chloro-4-methyl-phenyl)-{4-(2,4-dimethyl-thiazol-5-yl)-pyrimidin-2-yl}-amine] | 750 nM | 300 ± 300 nM |
| COc1ccc(Nc2nccc(-c3sc(C)nc3C)n2)cc1Cl [Compound 52, (3-Chloro-4-methoxy-phenyl)-{4-(2,4-dimethyl-thiazol-5-yl)-pyrimidin-2-yl}-amine] | 60 nM | 800 ± 300 nM |
| Cc1nc(C)c(-c2ccnc(Nc3ccc(C(=O)O)cc3)n2)s1 [Compound 53, 4-{4-(2,4-Dimethyl-thiazol-5-yl)-pyrimidin-2-ylamino}-benzoic acid] | 700 ± 400 nM | 12000 ± 5000 nM |
| Cc1nc(-c2ccccc2)sc1-c1ccnc(Nc2ccc(O)cc2)n1 [Compound 60, 4-{4-(4-Methyl-2-phenyl-thiazol-5-yl)-pyrimidin-2-ylamino}-phenol] | 4000 nM | 2100 ± 300 nM |
| CNc1nc(C)c(-c2ccnc(Nc3ccc(F)cc3)n2)s1 [Compound 62, (4-Fluoro-phenyl)-{4-(4-methyl-2-methylamino-thiazol-5-yl)-pyrimidin-2-yl}-amine] | 60 ± 30 nM | 1100 ± 200 nM |
| CNc1nc(C)c(-c2ccnc(Nc3ccc(I)cc3)n2)s1 [Compound 72, (4-Iodo-phenyl)-{4-(4-methyl-2-methylamino-thiazol-5-yl)-pyrimidin-2-yl}-amine] | 900 nM | 800 ± 500 nM |
| CNc1nc(C)c(-c2ccnc(Nc3ccc(O)c([N+](=O)[O-])c3)n2)s1 [Compound 73, 4-{4-(4-Methyl-2-methylamino-thiazol-5-yl)-pyrimidin-2-ylamino}-2-nitro-phenol] | 200 nM | 9000 ± 4000 nM |
| CCOC(=O)c1ccc(Nc2nccc(-c3sc(NC)nc3C)n2)cc1Cl [Compound 74, 2-Chloro-4-{4-(4-methyl-2-methylamino-thiazol-5-yl)-pyrimidin-2-ylamino}-benzoic acid ethyl ester] | 100 nM | 18000 ± 4000 nM |
| CCNc1nc(C)c(-c2ccnc(Nc3ccc(F)cc3)n2)s1 [Compound 75, {4-(2-Ethylamino-4-methyl-thiazol-5-yl)-pyrimidin-2-yl}-(4-fluoro-phenyl)-amine] | 200 nM | 3200 ± 400 nM |
| CNc1nc(C)c(-c2ccnc(Nc3cccc([N+](=O)[O-])c3)n2)s1 [Compound 76, (4-{4-Methyl-2-methylamino-thiazol-5-yl)-pyrimidin-2-yl}-(3-nitro-phenyl)-amine] | 800 nM | 3000 ± 900 nM |
| C=CCNc1nc(C)c(-c2ccnc(Nc3ccc(F)cc3)n2)s1 [Compound 82, {4-(2-Allylamino-4-methyl-thiazol-5-yl)-pyrimidin-2-yl}-(4-fluoro-phenyl)-amine] | 200 nM | 1100 ± 300 nM |
| CNc1nc(C)c(-c2ccnc(Nc3cccc(Br)c3)n2)s1 [Compound 83, (3-Bromo-phenyl)-{4-(4-methyl-2-methylamino-thiazol-5-yl)-pyrimidin-2-yl}-amine] | 200 nM | 600 ± 300 nM |
| CNc1nc(C)c(-c2ccnc(Nc3ccc(Br)cc3)n2)s1 [Compound 86, (4-Bromo-phenyl)-{4-(4-methyl-2-methylamino-thiazol-5-yl)-pyrimidin-2-yl}-amine] | 130 nM | 8000 ± 6000 nM |

Now from value to molecule, other results behind:

| IC50 (CDK2/cyclin E) | Compound | IC50 (A549) |
| --- | --- | --- |
| 80 nM | CNc1nc(C)c(-c2ccnc(Nc3ccc(Cl)cc3)n2)s1 [Compound 87, (4-Chloro-phenyl)-{4-(4-methyl-2-methylamino-thiazol-5-yl)-pyrimidin-2-yl}-amine] | 1700 ± 100 nM |
| 200 nM | CNc1nc(C)c(-c2ccnc(Nc3cccc(OC)c3)n2)s1 [Compound 88, (3-Methoxy-phenyl)-{4-(4-methyl-2-methylamino-thiazol-5-yl)-pyrimidin-2-yl}-amine] | 400 ± 100 nM |
| 1200 nM | CNc1nc(C)c(-c2ccnc(Nc3ccc(C(F)(F)F)cc3)n2)s1 [Compound 89, {4-(4-Methyl-2-methylamino-thiazol-5-yl)-pyrimidin-2-yl}-(4-trifluoromethyl-phenyl)-amine] | 18000 ± 11000 nM |
| 200 nM | CNc1nc(C)c(-c2ccnc(Nc3cccc(C(F)(F)F)c3)n2)s1 [Compound 90, {4-(4-Methyl-2-methylamino-thiazol-5-yl)-pyrimidin-2-yl}-(3-trifluoromethyl-phenyl)-amine] | 1800 ± 800 nM |
| 600 nM | Cc1nc(C)c(-c2ccnc(Nc3ccc(I)cc3F)n2)s1 [Compound 94, {4-(2,4-Dimethyl-thiazol-5-yl)-pyrimidin-2-yl}-(2-fluoro-4-iodo-phenyl)-amine] | 500 ± 600 nM |
| 600 nM | Cc1nc(C)c(-c2ccnc(Nc3ccc(O)c(Cl)c3)n2)s1 [Compound 97, 2-Chloro-4-{4-(2,4-dimethyl-thiazol-5-yl)-pyrimidin-2-ylamino}-phenol] | 4200 ± 400 nM |
| 1100 nM | COCCOC(=O)c1cc(Nc2nccc(-c3sc(C)nc3C)n2)ccc1F [Compound 98, 5-{4-(2,4-Dimethyl-thiazol-5-yl)-pyrimidin-2-ylamino}-2-fluoro-benzoic acid 2-methoxy-ethyl ester] | 2800 ± 2100 nM |
| 2000 nM | CNc1nc(C)c(-c2ccnc(Nc3ccc(F)cc3F)n2)s1 [Compound 105, (2,4-Difluoro-phenyl)-{4-(4-methyl-2-methylamino-thiazol-5-yl)-pyrimidin-2-yl}-amine] | 700 ± 900 nM |
| 10000 nM | CNc1nc(C)c(-c2ccnc(Nc3cc(F)cc(F)c3)n2)s1 [Compound 106, (3,5-Difluoro-phenyl)-{4-(4-methyl-2-methylamino-thiazol-5-yl)-pyrimidin-2-yl}-amine] | 2800 ± 500 nM |
| 3000 nM | CNc1nc(C)c(-c2ccnc(Nc3ccc(Cl)c(C(F)(F)F)c3)n2)s1 [Compound 107, (4-Chloro-3-trifluoromethyl-phenyl)-{4-(4-methyl-2-methylamino-thiazol-5-yl)-pyrimidin-2-yl}-amine] | 700 ± 200 nM |
